We go through ten compounds from patent US20250144067A1, “PERSONALIZED STARVATION THERAPY FOR CANCER” (Faeth Therapeutics, Inc., priority 2021, published 2025).

Assay [1] deals with NCI-H292 lung cancer cells. In words: FDA drug screening, complete media vs cholesterol-free media with simvastatin (TABLE 2). It counts as cell-based, human. The settings on record: for Cholesterol-free media + simvastatin (0.04 μM) / Complete Media: NCI-H292 cells.
For assay [2], the system named is NCI-H292 lung cancer cells. The experiment in a line: FDA drug screening, complete media vs cholesterol-free media without statin (TABLE 1). It is filed as cell-based, human.
[3] abbreviates: cholesterol-free media with simvastatin 0.04 μM, cell growth value in FDA drug screen.
Where [4] appears, read: complete media, cell growth value in FDA drug screen.
The mark [5] stands for this setting: complete media minus cholesterol-free media + simvastatin, >0 enhanced anti-cancer activity, about 0 neutral, <0 antagonist.
Where [6] appears, read: Complete minus Cholesterol-free, greater than 0 enhanced anti-cancer activity, about 0 neutral, below 0 antagonist.
[7] abbreviates: cholesterol-free media with simvastatin 0.04 μM, FDA drug library screen (TABLE 2).
Where [8] appears, read: complete media, FDA drug library screen (TABLE 2).
Setting [9] is: NCI-H292 cells, cholesterol-free media without statin, FDA drug library screen.
The mark [10] stands for this setting: NCI-H292 cells, complete media, FDA drug library screen.
Where [11] appears, read: FDA drug library screen, cholesterol-free media with simvastatin 0.04 μM.
[12] abbreviates: FDA drug library screen, complete media.
[13] abbreviates: complete media vs cholesterol-free media + simvastatin (0.04 μM), >0 enhanced anti-cancer activity, about 0 neutral, <0 antagonist.
The mark [14] stands for this setting: NCI-H292 cells, cholesterol-free media without statin.
Where [15] appears, read: complete vs cholesterol-free media, greater than 0 enhanced anti-cancer activity, about 0 neutral, below 0 antagonists.
Where [16] appears, read: Complete minus Cholesterol-free, >0 enhanced anti-cancer activity, about 0 neutral, <0 antagonist.

Take `CCCCCCOC(=O)N=C(N)c1ccc(NCc2nc3cc(C(=O)N(CCC(=O)OCC)c4ccccn4)ccc3n2C)cc1` [Dabigatran etexilate]: the “Cholesterol-free media + simvastatin (0.04 μM)” value in assay [1] (setting [3]) was 0.8555. The “Complete Media” value in assay [1] (setting [4]) came to 0.8818. In addition, the values for the Difference in assay [1] (setting [5]) and in assay [2] (setting [6]) were 0.03 and −0.09, respectively. Further, the Cholesterol-free in assay [2] (NCI-H292 cells, FDA drug library screen, cholesterol-free media without statin) was found to be 0.9682. In assay [2] (NCI-H292 cells, FDA drug library screen, complete media), this compound returned a Complete of 0.8738.
On to `CC1=C(C(=O)Nc2ccccc2)SCCO1` [Carboxin], for which the “Cholesterol-free media + simvastatin (0.04 μM)” value in assay [1] (setting [7]) is listed as 0.9577. Further, the “Complete Media” value in assay [1] (setting [8]) is recorded as 0.9272. Further, the Difference in assay [1] (complete media minus cholesterol-free media + simvastatin (0.04 μM), […]) is −0.03; in assay [2] (Complete minus Cholesterol-free, […]), −0.07. In assay [2] (setting [9]), this compound registered a Cholesterol-free of 1.397. Besides, the Complete in assay [2] (setting [10]) worked out at 1.326.
As for `CCOc1ccc2ccccc2c1C(=O)N[C@@H]1C(=O)N2[C@@H]1SC(C)(C)[C@@H]2C(=O)O` [Nafcillin (sodium monohydrate)], the “Cholesterol-free media + simvastatin (0.04 μM)” value in assay [1] (setting [11]) was 0.8693. Moreover, the Difference in assay [1] (setting [5]) is reported as 0.30; in assay [2] (Complete minus Cholesterol-free, greater than 0 enhanced anti-cancer activity, about 0 neutral, below 0 antagonists) it was −1.00. Besides, in assay [2] (NCI-H292 cells in cholesterol-free media without statin), the Cholesterol-free was found to be 1.957. Also, the Complete in assay [2] (NCI-H292 cells in complete media) is 0.9538.
For the compound `c1cc(CN2CCCNCCNCCCNCC2)ccc1CN1CCCNCCNCCCNCC1` [Plerixafor], in assay [1] (setting [11]), the “Cholesterol-free media + simvastatin (0.04 μM)” value is 1.17. Further, in assay [1] (setting [12]), the “Complete Media” value was found to be 1.011. In addition, the Difference in assay [1] (setting [13]) is on record as −0.16; in assay [2] (setting [15]) it was −0.36. Besides, in assay [2] (setting [14]), the Cholesterol-free turned out to be 1.296. The compound further showed a Complete in assay [2] (NCI-H292 cells, complete media) of 0.935.
Take `C[C@]12CC[C@H]3[C@@H](CC[C@@]45O[C@@H]4C(O)=C(C#N)C[C@]35C)[C@@H]1CC[C@@H]2O` [Trilostane]: the “Cholesterol-free media + simvastatin (0.04 μM)” value in assay [1] (drug in cholesterol-free media with simvastatin 0.04 μM) came out at 1.758. Also, the “Complete Media” value in assay [1] (drug in complete media) is recorded as 1.505. In addition, the Difference is −0.25 in assay [1] (setting [13]) and −0.23 in assay [2] (setting [16]). Further, the Cholesterol-free in assay [2] (setting [14]) was determined as 1.238. The compound further returned a Complete in assay [2] (NCI-H292 cells, complete media) of 1.003.
As to Safinamide (mesylate), the “Complete Media” value in assay [1] (drug in complete media) came out at 0.843. Moreover, the figures for the Difference in assay [1] (setting [13]) and in assay [2] (setting [6]) were −0.20 and −0.18, respectively.
For `CN1CCN(c2ccc(C(=O)Nc3n[nH]c4ccc(Cc5cc(F)cc(F)c5)cc34)c(NC3CCOCC3)c2)CC1` [Entrectinib], the “Cholesterol-free media + simvastatin (0.04 μM)” value in assay [1] (setting [3]) is on record as 0.2455. Besides, the “Complete Media” value in assay [1] (setting [4]) was 0.2696. In addition, the Difference is on record as 0.02 in assay [1] (setting [5]) and −0.05 in assay [2] (setting [16]). The same compound displayed a Cholesterol-free in assay [2] (setting [9]) of 0.4371. Also, the Complete in assay [2] (setting [10]) worked out at 0.3827.
As to `COc1ccc2cc([C@H](C)C(=O)O)ccc2c1` [Naproxen (sodium)], the “Cholesterol-free media + simvastatin (0.04 μM)” value in assay [1] (setting [11]) was 1.198. Moreover, the “Complete Media” value in assay [1] (setting [12]) stood at 1.058. Besides, the Difference in assay [1] (setting [13]) is −0.14; in assay [2] (setting [15]), −0.32. The Cholesterol-free in assay [2] (setting [14]) was 1.162. In assay [2] (NCI-H292 cells, complete media), this compound displayed a Complete of 0.8469.
Turning to `COc1ccc2c(O[C@@H]3C[C@H]4C(=O)N[C@]5(C(=O)NS(=O)(=O)C6CC6)C[C@H]5/C=C\CCCCN(C)C(=O)[C@@H]4C3)cc(-c3nc(C(C)C)cs3)nc2c1C` [Simeprevir], the “Cholesterol-free media + simvastatin (0.04 μM)” value in assay [1] (setting [11]) amounted to 0.845. The “Complete Media” value in assay [1] (setting [12]) was found to be 0.7552. Moreover, the Difference in assay [1] (setting [13]) was −0.09; in assay [2] (complete vs cholesterol-free media, >0 enhanced anti-cancer activity, about 0 neutral, <0 antagonist), 0.23. Moreover, the Cholesterol-free in assay [2] (setting [9]) is given as 0.5666. The Complete in assay [2] (setting [10]) is on record as 0.795.
Regarding `O=C(O)C(c1ccccc1)(c1ccccc1)c1ccccc1.OCc1cc([C@@H](O)CNCCCCCCOCCOCc2c(Cl)cccc2Cl)ccc1O` [Vilanterol (trifenatate)], the “Cholesterol-free media + simvastatin (0.04 μM)” value in assay [1] (setting [7]) turned out to be 0.9213. Further, the “Complete Media” value in assay [1] (setting [8]) was determined as 0.9369. Besides, the Difference in assay [1] (complete media minus cholesterol-free media + simvastatin (0.04 μM), >0 enhanced anti-cancer activity, about 0 neutral, <0 antagonist) is listed as 0.02; in assay [2] (setting [15]), −0.41. The Cholesterol-free in assay [2] (setting [14]) amounted to 1.453. The Complete in assay [2] (NCI-H292 cells, complete media) is 1.047.
